Test results: article PMC3965853 (Cancer chemotherapy and pharmacology, 2014)
Where “and” joins values, the source holds several entries; their conditions need not be identical. Equal entries are not always repeated. Entries after “also recorded” stand apart in the source; their conditions may differ.

What was measured:
[1] = Topotecan pharmacokinetics in plasma and urine without and with erlotinib; assay type: in vivo, patients; details: for CLrenal, Mean (SD) / CLrenal, Median / CLrenal, Range / CL, Mean (SD) / CL, Median / CL, Range / Dosage-normalized AUC, Range: total topotecan; for CLrenal, Mean (SD) / CLrenal, Median / CLrenal, Range: n 13; for CL, Mean (SD) / CL, Median / CL, Range / Dosage-normalized AUC, Range: n 19
[2] = test system: relapsed/refractory ovarian cancer; details: topotecan and lapatinib, 35 patients evaluable; cited from earlier work
[3] = test system: platinum refractory/resistant ovarian cancer; details: lapatinib in combination with topotecan, group of 18 patients; cited from earlier work
[4] = 30 min iv infusion days 1 to 5 of 21-day cycle, with 150 mg oral erlotinib daily
refractory solid tumors = assay: Antitumor response assessment; assay type: in vivo, patients
[5] = all patients n = 28, topotecan + erlotinib 150 mg
[6] = topotecan 0.75 mg/m^2 + erlotinib 150 mg, n = 8
[7] = topotecan 1.0 mg/m^2 + erlotinib 150 mg, n = 14
[8] = topotecan 1.25 mg/m^2 + erlotinib 150 mg, n = 6

SMILES: C#Cc1cccc(Nc2ncnc3cc(OCCOC)c(OCCOC)cc23)c1 [erlotinib]
- effect of erlotinib on topotecan clearance / disposition ([1]; erlotinib 150 mg daily, oral): does not affect the disposition of topotecan to a clinically significant extent; also recorded: did not have a clinically significant effect on topotecan clearance or exposure; also recorded: no significant effect on topotecan systemic clearance

SMILES: CS(=O)(=O)CCNCc1ccc(-c2ccc3ncnc(Nc4ccc(OCc5cccc(F)c5)c(Cl)c4)c3c2)o1 [lapatinib]
- disease stabilization, patients [2]: 12
- partial response, patients [2]: Five patients
- partial response, patients [3]: One partial response
- patients deriving clinical benefit [3]: three patients

SMILES: CC[C@@]1(O)C(=O)OCc2c1cc1n(c2=O)Cc2cc3c(CN(C)C)c(O)ccc3nc2-1 [topotecan]
- CLrenal, Mean (SD) ([1]; Cycle 1 (without erlotinib)): 4.95 (2.38) L/h/m^2
- CLrenal, Median ([1]; Cycle 1 (without erlotinib)): 4.61 L/h/m^2
- CLrenal, Range ([1]; Cycle 1 (without erlotinib)): 1.29–9.12 L/h/m^2
- CL, Mean (SD) ([1]; Cycle 1 (without erlotinib)): 9.41 (3.40) L/h/m^2
- CL, Median ([1]; Cycle 1 (without erlotinib)): 8.55 L/h/m^2
- CL, Range ([1]; Cycle 1 (without erlotinib)): 4.11–14.7 L/h/m^2
- Dosage-normalized AUC, Range ([1]; Cycle 1 (without erlotinib)): 35.1 to 142 ng·h/mL
- CLrenal, Mean (SD) ([1]; Cycle 2/3 (with erlotinib)): 4.07 (1.87) L/h/m^2
- CLrenal, Median ([1]; Cycle 2/3 (with erlotinib)): 3.84 L/h/m^2
- CLrenal, Range ([1]; Cycle 2/3 (with erlotinib)): 1.04–7.04 L/h/m^2
- CL, Mean (SD) ([1]; Cycle 2/3 (with erlotinib)): 8.60 (3.04) L/h/m^2
- CL, Median ([1]; Cycle 2/3 (with erlotinib)): 8.57 L/h/m^2
- CL, Range ([1]; Cycle 2/3 (with erlotinib)): 3.56–14.6 L/h/m^2
- Dosage-normalized AUC, Range ([1]; Cycle 2/3 (with erlotinib)): 51.4 to 237.2 ng·h/mL
- mean (terminal) clearance of topotecan, lower in Cycle 2/3 compared to Cycle 1 ([1]; with erlotinib vs without, p = 0.17): 8.6%
- mean renal clearance of topotecan, decrease in Cycle 2/3 compared to Cycle 1 ([1]; with erlotinib vs without, p = 0.21): 17.8%
- mean dosage-normalized AUC of topotecan, higher in Cycle 2/3 than in Cycle 1 ([1]; with erlotinib vs without, p = 0.45): 8.0%
- maximum tolerated dosage (MTD) of topotecan [4]: 1.0 mg/m^2
- Best overall response: Complete response, % of patients (refractory solid tumors; [5]): 0%
- Best overall response: Not evaluable, % of patients (refractory solid tumors; [5]): 21.4%
- Best overall response: Not evaluable, No. of Patients (refractory solid tumors; [5]): 6
- Best overall response: Partial response, % of patients (refractory solid tumors; [5]): 7% and 7.1%
- Best overall response: Progressive disease, % of patients (refractory solid tumors; [5]): 29% and 28.6%
- Best overall response: Progressive disease, No. of Patients (refractory solid tumors; [5]): 8
- Best overall response: Stable disease, % of patients (refractory solid tumors; [5]): 42.9%
- Best overall response: Stable disease, No. of Patients (refractory solid tumors; [5]): 12
- Best overall response: Complete response, No. of Patients (refractory solid tumors; [6]): 0
- Best overall response: Not evaluable, No. of Patients (refractory solid tumors; [6]): 1
- Best overall response: Partial response, No. of Patients (refractory solid tumors; [6]): 0
- Best overall response: Progressive disease, No. of Patients (refractory solid tumors; [6]): 4
- Best overall response: Stable disease, No. of Patients (refractory solid tumors; [6]): 3
- Best overall response: Complete response, No. of Patients (refractory solid tumors; [7]): 0
- Best overall response: Not evaluable, No. of Patients (refractory solid tumors; [7]): 4
- Best overall response: Partial response, No. of Patients (refractory solid tumors; [7]): 1
- Best overall response: Progressive disease, No. of Patients (refractory solid tumors; [7]): 4
- Best overall response: Stable disease, No. of Patients (refractory solid tumors; [7]): 5
- Best overall response: Complete response, No. of Patients (refractory solid tumors; [8]): 0
- Best overall response: Not evaluable, No. of Patients (refractory solid tumors; [8]): 1
- Best overall response: Partial response, No. of Patients (refractory solid tumors; [8]): 1
- Best overall response: Progressive disease, No. of Patients (refractory solid tumors; [8]): 0
- Best overall response: Stable disease, No. of Patients (refractory solid tumors; [8]): 4
